Assay results from ChEMBL document CHEMBL1153352 (Bioorg Med Chem Lett, 2009).
Converted amounts (≈) assume the structure as drawn.

Assays:
[1] = Solubility in water at pH 7.4; type: physicochemical
[2] = molecular target: Hepatocyte growth factor receptor (Homo sapiens, UniProt P08581); assay: Inhibition of GST-tagged human c-Met expressed in SF9 cells
Chain of Hepatocyte growth factor receptor (P08581 whole entry): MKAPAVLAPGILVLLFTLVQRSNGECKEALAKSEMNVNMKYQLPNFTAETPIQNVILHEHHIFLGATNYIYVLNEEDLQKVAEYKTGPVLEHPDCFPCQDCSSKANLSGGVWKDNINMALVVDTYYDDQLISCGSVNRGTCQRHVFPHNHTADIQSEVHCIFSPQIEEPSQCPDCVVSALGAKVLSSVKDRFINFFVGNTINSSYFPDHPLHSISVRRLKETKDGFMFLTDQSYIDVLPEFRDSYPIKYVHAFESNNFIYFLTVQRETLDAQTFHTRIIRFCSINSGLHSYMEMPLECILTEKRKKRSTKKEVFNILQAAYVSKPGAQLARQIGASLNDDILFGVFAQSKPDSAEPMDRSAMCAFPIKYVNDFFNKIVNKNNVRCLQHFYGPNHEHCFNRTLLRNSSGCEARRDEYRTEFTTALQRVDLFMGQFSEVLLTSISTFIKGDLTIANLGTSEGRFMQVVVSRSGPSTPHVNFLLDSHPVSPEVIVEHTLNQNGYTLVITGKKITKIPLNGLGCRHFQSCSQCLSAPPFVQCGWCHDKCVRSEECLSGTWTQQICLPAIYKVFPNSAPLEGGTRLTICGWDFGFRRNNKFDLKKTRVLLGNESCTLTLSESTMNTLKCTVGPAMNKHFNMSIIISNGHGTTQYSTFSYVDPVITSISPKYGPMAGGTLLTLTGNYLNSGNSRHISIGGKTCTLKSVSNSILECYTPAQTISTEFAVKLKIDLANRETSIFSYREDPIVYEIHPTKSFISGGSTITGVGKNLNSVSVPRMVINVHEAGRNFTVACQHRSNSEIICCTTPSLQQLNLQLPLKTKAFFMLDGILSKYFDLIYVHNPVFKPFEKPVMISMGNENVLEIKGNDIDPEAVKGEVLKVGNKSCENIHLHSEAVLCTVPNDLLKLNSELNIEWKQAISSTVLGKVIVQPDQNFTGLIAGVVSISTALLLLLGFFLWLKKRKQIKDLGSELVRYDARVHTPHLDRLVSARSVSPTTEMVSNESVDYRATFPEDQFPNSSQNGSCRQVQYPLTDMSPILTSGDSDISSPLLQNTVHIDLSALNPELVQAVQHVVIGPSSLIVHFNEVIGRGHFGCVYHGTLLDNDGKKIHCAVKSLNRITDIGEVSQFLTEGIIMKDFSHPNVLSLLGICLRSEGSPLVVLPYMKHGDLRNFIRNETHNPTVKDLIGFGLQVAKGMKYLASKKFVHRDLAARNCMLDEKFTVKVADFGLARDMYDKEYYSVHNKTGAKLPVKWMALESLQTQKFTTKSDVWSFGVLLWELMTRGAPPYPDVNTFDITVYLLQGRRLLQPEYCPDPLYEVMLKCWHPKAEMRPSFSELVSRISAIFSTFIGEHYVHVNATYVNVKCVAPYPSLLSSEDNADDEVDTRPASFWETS

| Compound | solubility [1] [µg/mL] | IC50 [2] |
| --- | --- | --- |
| N#Cc1ccc2[nH]c(-c3ccncc3)c(-c3ccc(F)cc3)c2n1 | 1 (≈ 3.18 µM) | – |
| N#Cc1ccc2[nH]c(-c3ccncc3)c(-c3ccncc3)c2n1 | – | Not Active |
| N#Cc1ccc2[nH]c(-c3ccncc3)c(-c3cnc(N)nc3)c2n1 | – | Not Active |
| CS(=O)(=O)c1ccc(-c2c(-c3ccncc3)[nH]c3ccc(C#N)nc23)cc1 | – | Not Active |
| N#Cc1ccc2[nH]c(-c3ccccc3)c(-c3ccc(F)cc3)c2n1 | – | Not Active |
